Patent publication US5834521A, “Substituted dibenz (A F)azulenes and methods of preparation” (Ortho Pharmaceutical Corporation, priority 1996, dated 1998)

Target: T1, Progestin Receptor (Oryctolagus cuniculus, UniProt P06186)
T1 construct: The high speed supernatant fraction was used as the receptor preparation; from tissue; host or cells: uterus of New Zealand rabbits, 200,000×g supernatant (cytosol)
T1 sequence (P06186 1-930): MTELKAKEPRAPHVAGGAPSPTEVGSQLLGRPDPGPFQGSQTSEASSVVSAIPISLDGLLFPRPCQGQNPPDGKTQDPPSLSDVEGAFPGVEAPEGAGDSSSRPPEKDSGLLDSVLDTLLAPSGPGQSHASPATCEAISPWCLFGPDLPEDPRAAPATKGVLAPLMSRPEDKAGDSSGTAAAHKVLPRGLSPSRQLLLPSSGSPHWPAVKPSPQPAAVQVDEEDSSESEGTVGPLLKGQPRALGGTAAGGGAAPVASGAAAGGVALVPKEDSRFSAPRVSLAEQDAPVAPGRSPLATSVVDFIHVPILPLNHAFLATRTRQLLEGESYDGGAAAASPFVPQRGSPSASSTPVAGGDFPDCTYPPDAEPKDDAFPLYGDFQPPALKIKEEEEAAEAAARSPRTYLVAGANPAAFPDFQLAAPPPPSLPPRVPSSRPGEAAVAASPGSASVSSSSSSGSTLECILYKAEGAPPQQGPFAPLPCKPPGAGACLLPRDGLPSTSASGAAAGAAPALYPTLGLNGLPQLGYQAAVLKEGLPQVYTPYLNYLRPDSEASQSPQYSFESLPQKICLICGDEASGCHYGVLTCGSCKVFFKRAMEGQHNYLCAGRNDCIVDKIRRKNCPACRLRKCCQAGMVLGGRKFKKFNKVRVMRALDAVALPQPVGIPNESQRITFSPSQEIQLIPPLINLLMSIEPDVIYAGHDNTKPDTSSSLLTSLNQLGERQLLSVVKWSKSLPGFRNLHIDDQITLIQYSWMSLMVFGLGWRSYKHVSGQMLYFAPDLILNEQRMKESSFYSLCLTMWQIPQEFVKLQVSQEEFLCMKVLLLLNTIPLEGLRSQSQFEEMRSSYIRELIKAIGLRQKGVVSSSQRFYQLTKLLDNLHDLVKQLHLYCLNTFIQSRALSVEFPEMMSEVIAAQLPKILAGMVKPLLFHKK
Test: Progestin Receptor Binding (competitive binding, 3H-promegestone, rabbit uterus receptor preparation)
Parameters: species or system New Zealand rabbits
Conditions: 3H-promegestone displacement, 4° C., 18 h
Procedure: Progestin Receptor Binding
The procedure used was essentially that of J. L. McGuire, C.
Uteri from New Zealand rabbits (1.5 to 2.5 kg) were placed in a cold buffer A (0.01 mol Tris-HCl, pH 8.0, 0.001 mol EDTA, 0.25 mol sucrose). The uteri were minced, washed and homogenized in cold buffer A. The homogenate (2 g wet tissue/mL buffer) was centrifuged at 200,000×g for 1 h at 4° C. The high speed supernatant fraction was used as the receptor preparation.
A competitive binding assay was performed by mixing 3H-promegestone with the receptor preparation and adding a known amount of unlabeled compound. This mixture was incubated at 4° C. for 18 h. The compounds bound to the receptor were separated from those which were free in solution using dextran coated charcoal and the amount of isotope bound to the receptor was determined by scintillation counting. The extent of the compound's interaction with the receptor is measured as the percent reduction in the total isotope bound caused by the unlabeled test compound as compared to the control levels. The receptor screen consists of measuring the reduction in the total isotope bound caused by the unlabeled test compound at […] final concentrations.

| Molecule | IC50 [µM] |
| --- | --- |
| CCC[C@@]12Cc3cc(OC)ccc3CC[C@@H]1c1ccc(F)cc1C2 (relative stereo) [Compound 72] | 0.1 |
| CCC12Cc3ccccc3C1=CCc1c(cccc1OC)C2 (stereo not drawn) [Compound 52] | 0.068 |
| COc1cccc2c1[C@H](C)C[C@@H]1c3ccccc3C[C@]1(C)C2 (relative stereo) [Compound 54] | 0.118 |
| CCCCC12Cc3cc(OC)ccc3CC=C1c1ccccc1C2 (stereo not drawn) [Compound 67] | 0.185 |
| CC1c2cc([N+](=O)[O-])c(O)cc2CC2(C)Cc3ccccc3C2C1O (stereo not drawn) [Compound 24, 6,11a-Dimethyl-5,9-dihydroxy-8-nitro-4b,5,6,11,11a,12-hexahydrodibenz[a,f]azulene] | 0.258 |
| CCC[C@]12Cc3ccccc3C1=C[C@@H](C)c1ccc(Br)cc1C2 (relative stereo) [Compound 92] | 0.139 |
| CC1CC2c3ccc(F)cc3CC2(C)Cc2cc(OCCN(C)C)ccc21 (stereo not drawn) [Compound 55, 6,11a-Dimethyl-9-(N,N'-dimethylamino)ethoxy-2-fluoro-4b,5,6,11,11a,12-hexahydro-6,11a-dimethyldibenz[a,f]-azulene] | 0.541 |
| CC(=O)Oc1cc2c(c(OC(C)=O)c1)[C@H](C)C[C@@H]1c3ccccc3C[C@]1(C)C2 (relative stereo) [Compound 87] | 0.729 |
| CC[C@]12Cc3ccccc3C1=C[C@@H](C)c1ccc(OC)cc1C2 (relative stereo) [Compound 17] | 0.16 |
| COc1cc2c(cc1[N+](=O)[O-])C(C)CC1c3ccccc3CC1(C)C2 (stereo not drawn) [Compound 102, 4b,5,6,11,11a,12-Hexahydro-9-methoxy-6,11a-dimethyl-8-nitro-dibenz[a,f]azulene] | 1.47 |
| CC(=O)Nc1ccc2c(c1)CC1(C)Cc3ccccc3C1=CC2C (stereo not drawn) [Compound 83, 9-Acetamido-6,11,11a,12-tetrahydro-6,11a-dimethyldibenz[a,f]azulene] | 1.97 |
| COc1ccc2c(c1)CC1(C)Cc3cc(OC)ccc3C1=CC2 (stereo not drawn) [Compound 34, 6,11,11a,12-Tetrahydro-2,9-dimethoxy-11a-methyl-dibenz[a,f]azulene] | 0.425 |
| CCCC12Cc3cc(OC)ccc3CC=C1c1ccc(F)cc1C2 (stereo not drawn) [Compound 57] | 0.067 |
| COc1ccc2c(c1)C[C@@]1(C)Cc3ccccc3C1=C[C@H]2C (relative stereo) [Compound 3] | 0.04 |
| CCC[C@]12Cc3cc(F)ccc3[C@H]1CCc1c(cccc1OC)C2 (relative stereo) [Compound 73] | 0.1 |
| COc1ccc2c(c1)CC1(C)Cc3ccccc3C1C(=O)C2C (stereo not drawn) [Compound 14, 6,11a-Dimethyl-9-methoxy-5-oxo-4b,5,6,11,11a,12-hexahydrodibenz[a,f]azulene] | 0.212 |
| CCCC12Cc3cc(OC)ccc3CCC1c1ccccc1C2 (stereo not drawn) [Compound 35] | 0.133 |
| 6,11,11a,12-Tetrahydro-8-carboxy-9-methoxy-6,11a-dimethyldibenz[a,f]azulene [Compound 80] | 10 |
| CC1CC2c3ccccc3CC2(C)Cc2cc(OCCN(C)C)ccc21 (stereo not drawn) [Compound 51] | 0.41 |
| COc1ccc2c(c1)CC1(C)Cc3ccccc3C1=CC2 (stereo not drawn) [Compound 2, 9-Methoxy-11a-methyl-6,11,11a,12-tetrahydrodibenz[a,f]azulene] | 0.239 |
| CCOP(=O)(OCC)Oc1ccc2c(c1)CC1(C)Cc3cc(F)ccc3C1CC2C (stereo not drawn) [Compound 49, 9-(2-Fluoro-6,11,11a,12-tetrahydro-6,11a-dimethyl)-dibenz[a,f]azulenyl diethyl phosphoric acid] | 0.072 |
| CC1CC2c3ccc(F)cc3CC2(C)Cc2ccccc21 (stereo not drawn) [Compound 69, 6,11a-Dimethyl-2-fluoro-4b,5,6,11,11a,12-hexahydrodibenz[a,f]azulene] | 0.037 |
| COc1ccc2c(c1)C[C@@]1(C)Cc3ccccc3[C@H]1[C@H](O)[C@H]2C (relative stereo) [Compound 13, 6,11a-Dimethyl-5-hydroxy-9-methoxy-4b,5,6,11,11a,12-hexahydrodibenz[a,f]azulene (α--OH)] | 0.337 |

| Molecule | IC50 [µM] |
| --- | --- |
| C=C1C=C2c3ccccc3CC2(C)Cc2cc(OC)ccc21 (stereo not drawn) [Compound 105, 6,11,11a,12-Tetrahydro-6-methenyl-9-methoxy-11a-methyldibenz[a,f]azulene] | 0.676 |
| CCC[C@]12Cc3ccccc3C1=C[C@@H](C)c1ccc(NC(C)=O)cc1C2 (relative stereo) [Compound 84] | 0.161 |
| 4b,5,6,11,11a,12-Hexahydro-7-methoxy-6,11a-dimethyldibenz-[a,f]azulene [Compound 109] | 1.25 |
| CC1CC2c3ccccc3CC2(C)Cc2c1cc([N+](=O)[O-])c(O)c2[N+](=O)[O-] (stereo not drawn) [Compound 101, 4b,5,6,11,11a,12-Hexahydro-9-hydroxy-6,11a-dimethyl-8,10-dinitrodibenz[a,f]azulene] | 0.621 |
| CCC[C@@]12Cc3cc(OC)ccc3CC[C@@H]1c1ccc(OC)cc1C2 (relative stereo) [Compound 71] | 0.439 |
| CCCC12Cc3cc(OC)ccc3C(C)CC1c1ccccc1C2 (stereo not drawn) [Compound 48] | 0.182 |
| CC[C@]12Cc3cc(OC)ccc3C1=C[C@@H](C)c1ccc(OC)cc1C2 (relative stereo) [Compound 22] | 0.421 |
| CC(=O)Nc1ccc2c(c1)CC1(C)Cc3ccccc3C1=CC2 (stereo not drawn) [Compound 95] | 1.77 |
| CC1CC2c3ccccc3CC2(C)Cc2ccccc21 (stereo not drawn) [Compound 28, 6,11a,-Dimethyl-4b,5,6,11,11a,12-hexahydrodibenz[a,f]azulene] | 0.032 |
| COc1ccc2c(c1)CC1(C)Cc3ccccc3C1CC2C (stereo not drawn) [Compound 107, 4b,5,6,11,11a,12-Hexahydro-9-methoxy-6,11a-dimethyldibenz-[a,f]azulene] | 0.678 |
| CCCC12Cc3cc(O)ccc3CCC1c1ccccc1C2 (stereo not drawn) [Compound 40] | 0.051 |
| COc1ccc2c(c1)C[C@@]1(C)Cc3cc(F)ccc3[C@H]1C[C@H]2C (relative stereo) [Compound 47] | 0.025 |
| CCCC12Cc3ccccc3C1=CCc1c(cccc1OC)C2 (stereo not drawn) [Compound 29] | 0.015 |
| C[C@@H]1CC2c3ccccc3C[C@]2(C)Cc2cc(O)ccc21 (stereo partly drawn) [Compound 12] | 0.456 |
| CC[C@]12Cc3ccccc3C1C[C@@H](C)c1ccc(OC)cc1C2 (stereo partly drawn) [Compound 23] | 0.419 |
| CC(=O)Nc1cc2c(cc1[N+](=O)[O-])C(C)CC1c3ccccc3CC1(C)C2 (stereo not drawn) [Compound 91] | 0.115 |
| COc1ccc2c(c1)CC1(C)Cc3ccccc3C1=CC2C (stereo not drawn) [Compound 106, 6,11,11a,12-Tetrahydro-9-methoxy-6,11a-dimethyldibenz[a,f]-azulene] | 0.105 |
| COc1cc2c(cc1[N+](=O)[O-])C(C)CC1c3ccc(F)cc3CC1(C)C2 (stereo not drawn) [Compound 65, 6,11a-Dimethyl-2-fluoro-8-nitro-9-methoxy-4b,5,6,11,11a,12-hexahydrodibenz[a,f]azulene 1/4 Hydrate] | 0.009 |
| CCCC12Cc3cc(F)ccc3C1=CCc1c(cccc1OC)C2 (stereo not drawn) [Compound 56] | 0.034 |
| CC1CC2c3ccccc3CC2(C)Cc2cc(N)ccc21 (stereo not drawn) [Compound 89, 9-Amino-6,11a-dimethyl-4b,5,6,11,11a,12-hexahydrodibenz[a,f]azulene] | 0.137 |
| CCC[C@]12Cc3ccccc3C1=C[C@@H](C)c1ccc(I)cc1C2 (relative stereo) [Compound 99] | 0.09 |
| COc1ccc2c(c1)C[C@@]1(C)Cc3ccccc3[C@@H]1C[C@H]2C (relative stereo) [Compound 16] | 0.353 |
